Results on 33 molecules are retold here after US20250059231A1, “Protease inhibitors” (priority 2021, published 2025).

Where a SMILES comes first, the peptide text is derived from it. [ ]: non-standard residue; d: D form. The star is where a group is joined. Benzoyl(4-Ph) = O=C(c1ccc(-c2ccccc2)cc1)*; Palmitoyl = CCCCCCCCCCCCCCCC(=O)*; 3Pal = N[C@@H](Cc1cccnc1)C(=O)O; 4Pal = N[C@@H](Cc1ccncc1)C(=O)O; Myristoyl = CCCCCCCCCCCCCC(=O)*; Lauroyl = CCCCCCCCCCCC(=O)*; X1 = FC(F)(F)c1ccc(CN*)cc1; Octanoyl = CCCCCCCC(=O)*; NHOctyl = CCCCCCCCN*; Propionyl = CCC(=O)*; N(Me)OMe = CON(C)*; NHPr = CCCN*

T1 sequence (P29990 1398-1437): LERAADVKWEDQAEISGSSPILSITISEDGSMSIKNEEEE
T1 sequence (P29990 1476-1653): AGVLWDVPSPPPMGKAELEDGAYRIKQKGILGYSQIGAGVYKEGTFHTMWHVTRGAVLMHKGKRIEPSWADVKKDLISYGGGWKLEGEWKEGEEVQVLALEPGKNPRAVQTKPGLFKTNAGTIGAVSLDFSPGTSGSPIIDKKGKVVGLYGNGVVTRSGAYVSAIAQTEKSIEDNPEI

One assay concerns the target T1, DENV protease (Dengue virus type 2, UniProt P29990).
T1 construct: The virus-encoded dengue protease comprises the amino-terminal 180 amino acids of NS3 (NS3pro) of the polyprotein
As to the kind of experiment: biochemical. The settings on record: at 50 μM; read-out: inhibition of DENV. The method, then: Dilutions were made starting from 10 mM stock solutions in DMSO and final concentrations were measured in triplicates. The inhibitors were preincubated for 15 min with DENV protease (100 nM) in the assay buffer (50 mM Tris-HCl pH 9.0, ethylene glycol (10% v/v), and 0.0016% Brij 58). The enzymatic reaction was initiated by the addition of the FRET substrate (final concentration 50 μM) to obtain a final assay volume of 100 μL per well. The enzymatic activity was monitored for 15 min and determined as a slope of relative fluorescence units per second (RFU/s) for each concentration. The mean of the triplicates were plotted against the corresponding concentration in CDDVault to determine the IC50-values. Analogous procedures were used to determine the inhibitory potency on WNV (Kühl et al., J. Med. Chem. 2020, 63 (15): 8179-8197) and ZIKA protease (Nitsche et al., ACS Med. Chem. Lett. 2019 Feb. 14; 10 (2): 168-174). For selectivity screening of active candidates, similar biochemical assays with human serine proteases trypsin (Weigel et al., J. Med. Chem. 2015, 58 (19), 7719-7733.) and/or thrombin (Nitsche et al., J. Med. Chem. 2013, 56 (21), 8389-8403) were used.
For the molecule `CCCCCCCCCCCCCCCC(=O)N[C@@H](CCCCN)C(=O)N[C@@H](C)C(=O)N[C@@H](C)C(=O)N[C@@H](CCCCN)C(=O)N(C)OC` [compound 177] (Palmitoyl-KAAK-{N(Me)OMe}), the inhibition at 50 µM is no less than 25%. For `CCCCCCCCCCCCCCCC(=O)N[C@@H](CCCCN)C(=O)N1CCC[C@H]1C(=O)N[C@@H](C)C(=O)N[C@@H](CCc1c[nH]cn1)C(N)=O` [compound 165], the inhibition at 50 µM is no less than 25%. On the same count and under the same terms, for `CCCCCCCCCCCCCCCC(=O)N[C@@H](CCCCN)C(=O)N[C@@H](C)C(=O)N[C@H](CCCCN)C(N)=O` [compound 160] (Palmitoyl-Lys-Ala-[dK]-NH2) the value was no less than 25%. On to `CCCCCCCCCCCCCCCC(=O)N[C@@H](CCCNC(=N)N)C(=O)N[C@@H](CCCCN)C(N)=O` [compound 161] (Palmitoyl-Arg-Lys-NH2), for which the inhibition at 50 µM is no less than 25%. Turning to `CCCCCCCCCCCCCCCC(=O)N[C@@H](CCCCN)C(=O)N[C@@H](CCCCN)C(N)=O` [compound 110], the inhibition at 50 µM was no less than 25%. Turning to `CCCCCCCCCCCCCCCC(=O)N[C@@H](Cc1cccc(NC(=N)N)c1)C(=O)N[C@@H](CCC(N)=O)C(=O)N[C@@H](Cc1ccccc1)C(N)=O` [compound 67], the inhibition at 50 µM is no less than 25%. Same read-out and setting: the figure for `CCCCCCCCNC(=O)[C@H](CCCCN)NC(=O)[C@H](C)NC(=O)[C@H](CCCCN)NC(=O)[C@H](CC(C)C)NC(=O)CCCCCCC` [compound 25] (Octanoyl-LKAK-NHOctyl) is no less than 25%. As to `CCCCCCCCCCCCCCCC(=O)N[C@@H](CCCCN)C(=O)N1CCC[C@H]1C(=O)N[C@@H](C)C(=O)N[C@@H](Cc1c[nH]cn1)C(N)=O` [compound 163] (Palmitoyl-KPAH-NH2), the inhibition at 50 µM is no less than 25%. On the same count and under the same terms, the figure for `CCCCCCCCCCCCCCCC(=O)N[C@@H](C)C(=O)N1C[C@@H](Oc2ccncc2)C[C@H]1C(=O)N[C@@H](C)C(=O)N[C@@H](CCCCN)C(N)=O` [compound 7] is no less than 25%; for `C[C@H](NC(=O)c1ccc(-c2ccccc2)cc1)C(=O)N[C@@H](CCCNC(=N)N)C(=O)N[C@@H](CCC(N)=O)C(=O)N[C@@H](CCCCN)C(=O)NCc1ccc(C(F)(F)F)cc1` [compound 38] ({Benzoyl(4-Ph)}-ARQK-X1) it is no less than 25%; for `CCCCCCCCCCCCCCCC(=O)N[C@@H](CCCCN)C(=O)N1CCC[C@H]1C(=O)N[C@@H](C)C(=O)N[C@H](Cc1c[nH]cn1)C(N)=O` [compound 164] (Palmitoyl-KPA[dH]-NH2) it is no less than 25%.

For the molecule `CCCCCCCCCCCCCCCC(=O)N[C@@H](Cc1cccnc1)C(=O)N[C@@H](CCC(N)=O)C(=O)N[C@@H](Cc1ccccc1)C(N)=O` [compound 64] (Palmitoyl-[3Pal]-Gln-Phe-NH2), the inhibition at 50 µM is no less than 25%. Turning to `CCCCCCCCCCCCCCCC(=O)N[C@@H](CCCCN)C(=O)N1CCC[C@H]1C(=O)N[C@@H](Cc1cnc[nH]1)C(=O)N[C@@H](CCCCN)C(N)=O` [compound 12] (Palmitoyl-KPHK-NH2), the inhibition at 50 µM was no less than 25%.

Consider `CCCCCCCCCCCCCCCC(=O)N[C@@H](CCCCN)C(=O)N[C@@H](C)C(=O)N[C@@H](C)C(=O)N[C@H](C(N)=O)c1ccc(OCc2ccccc2)cc1` [compound 139], for which the inhibition at 50 µM was no less than 25%. Same read-out and setting: for `CCCCCCCCCCCCCCCC(=O)N[C@@H](CCNc1ncc[nH]1)C(=O)N[C@@H](CCC(N)=O)C(=O)N[C@@H](Cc1ccccc1)C(N)=O` [compound 66] the value was no less than 25%; for `CCCCCCCCCCCCCCCC(=O)N[C@@H](Cc1c[nH]cn1)C(=O)N[C@@H](CCC(N)=O)C(=O)N[C@@H](Cc1ccccc1)C(N)=O` [compound 52] (Palmitoyl-His-Gln-Phe-NH2), no less than 25%. With `CCCCCCCCCCCCCC(=O)N[C@@H](CCCCN)C(=O)N[C@@H](C)C(=O)N[C@@H](C)C(=O)N[C@H](CCCCN)C(N)=O` [compound 151] (Myristoyl-KAA[dK]-NH2), the inhibition at 50 µM is no less than 25%. Same read-out and setting: for `CCCCCCCCCCCCCCCC(=O)N[C@@H](C)CC(=O)N[C@@H](CCCNC(=N)N)C(=O)N[C@@H](CCC(N)=O)CC(=O)N[C@@H](CCCCN)C(N)=O` [compound 72] the value was no less than 25%. In the case of `CCCNC(=O)[C@H](CCCCN)NC(=O)[C@H](CCCCN)NC(=O)[C@H](CCCCN)NC(=O)[C@H](C)NC(=O)CC` [compound 21] (Propionyl-AKKK-NHPr), the inhibition at 50 µM is no less than 25%. Consider `CCCCCCCCCCCC(=O)N[C@@H](C)C(=O)N[C@@H](CCCCN)C(=O)N[C@@H](C)C(=O)N[C@H](C)C(N)=O` [compound 152] (Lauroyl-AKA[dA]-NH2), for which the inhibition at 50 µM is no less than 25%. Take `CCCCCCCCCCCCCCCC(=O)N[C@@H](CCCNC(=N)N)C(=O)N[C@@H](CCC(N)=O)C(=O)N[C@@H](Cc1ccccc1)B(O)O` [compound 60]: the inhibition at 50 µM was no less than 25%. Consider `CCCCCCCCCCCCCCCC(=O)N[C@@H](CCCCN)C(=O)N1CCC[C@H]1C(=O)N[C@@H](C)C(=O)N[C@@H](CCCCN)c1nnc(C)o1` [compound 1], for which the inhibition at 50 µM is no less than 25%. As for `CCCCCCCCCCCCCCCC(=O)N[C@@H](CCCCN)C(=O)N1CCC[C@H]1C(=O)N[C@@H](C)C(=O)N[C@@H](CCCCN)C(=O)c1ccccc1` [compound 128], the inhibition at 50 µM was no less than 25%. Take `CCCCCCCCCCCCCCCC(=O)N[C@@H](Cc1ccncc1)C(=O)N[C@@H](CCC(N)=O)C(=O)N[C@@H](Cc1ccccc1)C(N)=O` [compound 63] (Palmitoyl-[4Pal]-Gln-Phe-NH2): the inhibition at 50 µM is no less than 25%. Turning to `CCCCCCCCCCCCCCCC(=O)N[C@H](CCCCN)C(=O)N[C@@H](C)C(=O)N[C@@H](CCCCN)C(N)=O` [compound 159] (Palmitoyl-[dK]-Ala-Lys-NH2), the inhibition at 50 µM is no less than 25%. On the same count and under the same terms, for `CCCCCCCCCCCCCCCC(=O)N[C@@H](CCCCN)C(=O)N[C@@H](C)C(=O)N[C@@H](C)C(=O)N[C@H](CCCCN)C(=O)NS(=O)(=O)C1CC1` [compound 135] the value was no less than 25%. Regarding `CCCCCCCCCCCCCCCC(=O)N[C@@H](CCCCN)C(=O)N[C@@H](C)C(=O)N[C@@H](C)C(=O)N[C@H](C)C(N)=O` [compound 147] (Palmitoyl-KAA[dA]-NH2), the inhibition at 50 µM was no less than 25%.

As for `CCCCCCCCCCCCCCCC(=O)N[C@@H](CCCCN)C(=O)N[C@@H](C)C(=O)N[C@@H](C)C(=O)N[C@H](Cc1c[nH]c2ccccc12)C(N)=O` [compound 93] (Palmitoyl-KAA[dW]-NH2), the inhibition at 50 µM is no less than 25%.

As to `CCCCCCCCCCCCCCCC(=O)N[C@@H](CCCCN)C(=O)N[C@H](C)C(=O)N[C@@H](C)C(=O)N[C@@H](CCCCN)C(N)=O` [compound 158] (Palmitoyl-K[dA]AK-NH2), the inhibition at 50 µM was no less than 25%. Consider `CCCCCCCCCCCCCCCC(=O)N[C@@H](CCCNC(=N)N)C(=O)N[C@@H](CCC(N)=O)C(=O)N[C@@H](CCCCN)C(N)=O` [compound 40] (Palmitoyl-Arg-Gln-Lys-NH2), for which the inhibition at 50 µM was no less than 25%. On the same count and under the same terms, the figure for `CCCCCCCCCCCCCCCCNC(=O)[C@H](CCCCN)NC(=O)C[C@H](C)NC(=O)[C@H](C)NC(=O)C[C@@H](N)CCCCN` [compound 83] is no less than 25%; for `CCCCCCCCCCCCCCCC(=O)N[C@@H](CCCCN)C(=O)N[C@@H](C)C(=O)N[C@@H](C)C(=O)N[C@H](CCCCN)c1nnc(C)o1` [compound 2] it is no less than 25%.

Staying with this assay, now noted: read-out: inhibition of DENV.
Turning to `C[C@H](NC(=O)[C@H](CCCCN)NC(=O)c1ccc(-c2ccccc2)cc1)C(=O)N[C@@H](CCCCN)CC(=O)NCc1ccc(C(F)(F)F)cc1` [compound 78], the inhibition at 50 µM is no less than 25%.
